Data: BindingDB's records for doi:10.1016/j.bmc.2008.11.020 (Astellas Pharma, 2008)

Experiments:
[1] = Antagonist activity at human CCR4 receptor expressed in mouse B300-19 cells assessed as CCL22-induced chemotaxis
[2] = Antagonist activity at mouse CCR4 receptor expressed in mouse B300-19 cells assessed as CCL22-induced chemotaxis

## COCC1CCCN(C2CCN(c3nc(Nc4ccc(Cl)cc4)c4cc(OC)c(OC)cc4n3)CC2)C1 (stereo unspecified) [N-(4-Chlorophenyl)-6,7-dimethoxy-2-[3-(methoxymethyl)-1,4'-bipiperidin-1'-yl]quinazolin-4-amine]
[1]
  IC50: 64 nM
[2]
  IC50: 230 nM

## COc1cc2nc(N3CCC(N4CCCC(O)C4)CC3)nc(Nc3ccc(Cl)cc3)c2cc1OC (stereo unspecified) [1'-{4-[(4-Chlorophenyl)amino]-6,7-dimethoxyquinazolin-2-yl}-1,4'-bipiperidin-3-ol]
[1]
  IC50: 85 nM
[2]
  IC50: 430 nM

## COc1cc2nc(N3CCC(N4CCOC(CO)C4)CC3)nc(Nc3ccc(Cl)cc3)c2cc1OC (stereo unspecified) [[4-(1-{4-[(4-Chlorophenyl)amino]-6,7-dimethoxyquinazolin-2-yl}piperidin-4-yl)morpholin-2-yl]methanol]
[1]
  IC50: 620 nM

## COc1cc2nc(N3CCC(N4CCCCC4)CC3)nc(NC3CCCCCC3)c2cc1OC [N-cycloheptyl-6,7-dimethoxy-2-(4-(piperidin-1-yl)piperidin-1-yl)quinazolin-4-amine]
[1]
  IC50: 140 nM
[2]
  IC50: 39 nM

## COc1cc2nc(N3CCC(N4CCCC(CO)C4)CC3)nc(Nc3ccc(Cl)cc3)c2cc1OC (stereo unspecified) [(1'-{4-[(4-Chlorophenyl)amino]-6,7-dimethoxyquinazolin-2-yl}-1,4'-bipiperidin-3-yl)methanol]
[1]
  IC50: 23 nM
[2]
  IC50: 58 nM

## COc1cc2nc(N3CCC(N4CCCC(OC)C4)CC3)nc(Nc3ccc(Cl)cc3)c2cc1OC (stereo unspecified) [N-(4-chlorophenyl)-6,7-dimethoxy-2-(3-methoxy-1,4'-bipiperidin-1'-yl)quinazolin-4-amine]
[1]
  IC50: 510 nM
[2]
  IC50: 420 nM

## COc1cc2nc(N3CCC(N4CCCC(CO)C4)CC3)nc(NC3CCCCCC3)c2cc1OC (stereo unspecified) [{1'-[4-(Cycloheptylamino)-6,7-dimethoxyquinazolin-2-yl]-1,4'-bipiperidin-3-yl}methanol]
[1]
  IC50: 100 nM
[2]
  IC50: 19 nM

## COc1cc2nc(N3CCC(N4CCCC(CO)C4)CC3)nc(NCCc3ccc(Cl)cc3)c2cc1OC (stereo unspecified) [1'-(4-{[2-(4-Chlorophenyl)ethyl]amino}-6,7-dimethoxyquinazolin-2-yl)-1,40-bipiperidin-3-yl]methanol]
[2]
  IC50: 390 nM

## COc1cc2nc(N3CCC(N4CCCC(CO)C4)CC3)nc(NCc3ccc(Cl)cc3)c2cc1OC (stereo unspecified) [(1'-{4-[(4-Chlorobenzyl)amino]-6,7-dimethoxyquinazolin-2-yl}-1,4'-bipiperidin-3-yl)methanol]
[1]
  IC50: 450 nM
[2]
  IC50: 140 nM
